This note sets out measurements from PMC4311240, “Rationally Designed Peptidomimetic Modulators of Aβ Toxicity in Alzheimer's Disease” (Scientific Reports, 2015).

The structures appear in SMILES notation. Non-standard residues stand in square brackets, D forms with d. Residues, ends and D or L forms follow the SMILES beside them. *: point of attachment. Acetyl(thymin-1-yl) = Cc1cn(CC(=O)*)c(=O)[nH]c1=O; Sar = CNCC(=O)O

Series [1] deals with T1, Aβ42 fibrillar aggregates (Homo sapiens, UniProt P05067).
T1 construct: Aβ42 peptide (0.25 mg) (Calbiochem, Merck) was dissolved in hexafluoro-2-propanol; purchased Calbiochem, Merck
T1 sequence (P05067 672-713 limits assumed): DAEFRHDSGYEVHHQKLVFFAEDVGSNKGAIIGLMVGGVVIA
Briefly: ThT fluorescence reversal (dissolution) assay of preformed Aβ42 fibrillar aggregates. Conditions: n = 3; for dissolution efficiency, fibril reversal assay (ThT): Aβ42 fibrillar aggregates grown for 2 days, 20 μM, 1:2 stoichiometry, day 6, 37°C; for dissolution efficiency, time-dependent reversal ThT assay: Aβ42 aggregates 20 μM, 1:2, 37°C. It is filed as biochemical. The protocol:
ThT assay has been widely used to monitor the transformation of Aβ42 monomers to fibrillar aggregates. We employed ThT assay to evaluate the ability of our peptidomimetic candidates to either prevent fibril assembly (inhibition) or to break down preformed fibrils of Aβ42 (dissolution). For the inhibition assay all the peptidomimetics (P2, P3, P4 and P5) along with control peptide P1 were added at 0 h of the experiment, whereas for the aggregates reversal (dissolution) assay they were added to Aβ42 fibrillar aggregates grown for 2 days. Once they had been incubated together, Aβ42/inhibitors were analyzed using ThT by measuring the fluorescence changes. First, we performed concentration-dependent experiments where different ratios of P1, P2, P3, P4 and P5 were incubated with fixed concentrations of Aβ42 (20 μM) and its aggregates to study their effect on both inhibition and reversal assay, respectively. Experiments were performed at stoichiometric ratios (Aβ42/inhibitor) of 1:0.2, 1:1, and 1:2 with the fixed concentration of Aβ42 of 20 μM. […] However, the efficiencies of P4 and P5 were only marginally better in inhibition assay compared to reversal assay with a difference of about 15%.
Aβ42 peptide (0.25 mg) (Calbiochem, Merck) was dissolved in hexafluoro-2-propanol (HFIP, 0.2 mL) and incubated at room temperature for 1 h. HFIP was then removed by the flow of nitrogen and further dried under vacuum. HFIP-treated Aβ42 was then dissolved in 10 mM PBS buffer to a concentration of 200 μM at pH 7.4. The solution was incubated at 37°C for 48 h with constant shaking for fibril formation. The formation of Aβ42 fibrillar aggregates was confirmed by ThT fluorescence, CD measurements and electron microscopy. For oligomers, HFIP-treated Aβ42 dissolved in 10 mM PBS buffer and incubated at 4°C for 24 h[44].
Fluorescence spectral measurements were carried out using Perkin Elmer Model LS 55 fluorescence spectrophotometer. […] A ThT concentration of 5–10 µM was used for amyloid fibrillization and dissolution assay based on the Aβ42 fibrillar concentration.
(§1) Prior to the experiment, P1, P2, P3, P4 and P5 were dissolved in HFIP and were evaporated under a stream of dry nitrogen. The dried samples were re-suspended in 10 mM PBS buffer at pH 7.4. An aliquot of Aβ42 peptide was then added to the solution with or without one of the inhibitor P1, P2, P3, P4 and P5. The mixtures were vortexed for approximately 30 s and then incubated at 37°C for 2–3 days without shaking. The final concentration of Aβ42 in the mixture was 20 μΜ. For a dissolution experiment, Aβ42 was incubated alone for 2 days to allow fibrils to form. An aliquot of the formed fibrils in 10 mM PBS buffer was then added to the inhibitor peptidomimetics. The amount of fibrils remaining intact was assayed using that fluorescence, CD measurements and transmission electron microscopy as described below.

For series [2], the target named is T2, Aβ42 aggregates (Homo sapiens, UniProt P05067).
T2 construct: Aβ42 peptide (0.25 mg) (Calbiochem, Merck) was dissolved in hexafluoro-2-propanol; purchased Calbiochem, Merck
T2 sequence (P05067 672-713 limits assumed): as above
Briefly: CD measurement, reversal assay (β-sheet band at 218 nm). Conditions: Aβ42 aggregates 20 μM, inhibitor 40 μM, six days at 37°C. The format is biochemical.
Text: To further validate our results, we performed CD studies. Aβ42 aggregates are predominantly made of β-sheet assembly, which can be assessed by CD measurements. […] In this assay, we monitored the intensity of negative CD band centered at 218 nm, characteristic of a β-sheet structure and a decrease in its intensity was correlated with a reduction in the toxic Aβ42 aggregates (supplementary Fig. S2). In these CD measurements, samples similar to ThT fluorescence assays were used to allow for direct comparison between the two experiments. In the case of inhibition assay, Aβ42 monomers were incubated with inhibitor candidates for 4 days at 37°C and then CD measurements were performed to evaluate the inhibition efficiency. […] In the reversal assay, Aβ42 aggregates were incubated with the inhibitor candidates for six days at 37°C and then, CD measurements were performed. CD data was in excellent agreement with the dissolution efficiency obtained in reversal assay experiments monitored by the ThT assay (Fig. 2). […] Overall, inhibition and dissolution efficiencies obtained in the ThT fluorescence assay and CD measurements were in good agreement.
The circular dichroic (CD) spectra were recorded using a Jasco J-815 spectrometer under nitrogen atmosphere. Peptides were dissolved in 10 mM PBS buffer at pH 7.4 at concentrations of 20 µM. A 10 mm path length was used for the measurements. Four to five scans were acquired from 200 to 300 nm.
as §1

Series [3] can be described thus: Serum stability assay. The format is in vitro ADME. Conditions: 37°C; for half-life at 50 μM / remaining at 24 h, 50 μM: human blood serum (centrifuged to remove lipid), 24 h, RP-HPLC at 254 nm; for half-life at 50 μM: n = 3; for serum half-life compared to P1: human blood serum, 50 μM; for remaining at 24 h, 50 μM: n = 3, read-out: peptide intact after 24 h in serum. As to the method:
The impact of N-terminal modification (P2 and P3) and Sr (N-methylglycine) substitution (P4 and P5) in P1 were investigated for their proteolytic stability towards blood plasma proteases. The assay involved the incubation of peptides (50 μM) with blood serum at 37°C for a period of 24 h and assessing the amount of intact peptides at different time points (0, 3, 6, 12 and 24 h) using RP-HPLC. […] Remarkably, P4 and P5 were very stable towards blood plasma proteases in comparison to the other peptides (P1, P2 and P3). […] Proteolytic enzymes generally recognize the specific amide bond between the natural amino acids and cleave them. […] On the other hand, P4 and P5 with an unnatural amino acid (Sr: N-methylglycine) in alternate positions were not recognized by the blood plasma proteases, resulting in their high blood plasma protease stability.
Figure 6 Serum stability of inhibitors. Inhibitors (50 μM) (P1-P5)were incubated in human blood serum (HBS) and were analyzed at different time points over a duration of 24 h to determine the percentage of intact inhibitor. […] Each experiment was repeated three times (n = 3). Error bars represent the standard deviation (SD) of the […] measurement.
Human blood serum (HBS) was used to determine serum stability of the inhibitors. The HBS was centrifuged to remove the lipid component, and the supernatant was incubated at 37°C. 50 Μm of each inhibitor (P1, P2, P3, P4 and P5) was incubated in HBS and then 40 μL triplicate aliquots were removed at 0, 1, 3, 6, 10, 16, and 24 h. Each serum sample was quenched with 40 μL of 6 M urea and incubated at 4°C for 10 min. Then, each serum sample was quenched with 40 μL of trichloroacetic acid (20%) and incubated for another 10 min at 4°C to precipitate the serum proteins. The samples were centrifuged for 10 min, and […] of the supernatant was analyzed on RP-HPLC using a linear gradient of solvent B (0.3 mL/min flow rate). The control samples containing equivalent amounts of inhibitors in PBS buffer were subjected to the same treatment procedure. The percentage recovery of inhibitors was detected by integration at 254 nm[45].

Take `CC(C)C[C@H](NC(=O)[C@H](CCCCN)NC(=O)CC1C(=O)NC(=O)NC1=O)C(=O)N[C@H](C(=O)N[C@@H](Cc1ccccc1)C(=O)N[C@@H](Cc1ccccc1)C(N)=O)C(C)C` [P3]: in series [1], the “dissolution efficiency, fibril reversal assay (ThT)” value (“dissolution efficiency … (ThT)” for short) came out at 34% and the “dissolution efficiency, time-dependent reversal ThT assay” value is listed as 25%. For the same compound, the “dissolution efficiency by CD, reversal assay” value (shortened to “dissolution efficiency by CD”) in series [2] came out at 25%. In series [3], the half-life (in general, how long it takes for the measured level to halve) at 50 μM was approximately 10 h and the “serum half-life compared to P1” value is 3 times.

As for `Cc1cn(CC(=O)N[C@@H](CCCCN)C(=O)N[C@@H](CC(C)C)C(=O)N[C@H](C(=O)N[C@@H](Cc2ccccc2)C(=O)N[C@@H](Cc2ccccc2)C(N)=O)C(C)C)c(=O)[nH]c1=O` [P2], in series [1], the “dissolution efficiency … (ThT)” value came to 45% and the “dissolution efficiency, time-dependent reversal ThT assay” value is reported as 35%. Further, in series [2], the “dissolution efficiency by CD” value was 40%. Also, in series [3], the half-life at 50 μM was approximately 10 h and the “serum half-life compared to P1” value amounted to 3 times.

For `Cc1cn(CC(=O)N(C)CC(=O)N[C@@H](CC(C)C)C(=O)N(C)CC(=O)N[C@@H](Cc2ccccc2)C(=O)N(C)CC(=O)N[C@@H](C)C(N)=O)c(=O)[nH]c1=O` [P4] ({Acetyl(thymin-1-yl)}-[Sar]L[Sar]F[Sar]A-NH2), in series [1], the “dissolution efficiency … (ThT)” value was found to be 80% and the “dissolution efficiency, time-dependent reversal ThT assay” value worked out at 68%. Besides, in series [2], the “dissolution efficiency by CD” value is listed as more than 75%. In addition, the remaining at 24 h, 50 μM in series [3] was more than 90%.

On to `Cc1cn(CC(=O)N[C@@H](CCCCN)C(=O)N(C)CC(=O)N[C@H](C(=O)N(C)CC(=O)N[C@@H](Cc2ccccc2)C(=O)N(C)CC(N)=O)C(C)C)c(=O)[nH]c1=O` [P5] ({Acetyl(thymin-1-yl)}-K[Sar]V[Sar]F[Sar]-NH2), for which, in series [1], the “dissolution efficiency … (ThT)” value turned out to be 80% and the “dissolution efficiency, time-dependent reversal ThT assay” value is given as 75%. In addition, in series [2], the “dissolution efficiency by CD” value is more than 75%. The remaining at 24 h, 50 μM in series [3] was more than 90%.
